Assay [1] has as its system Vero. The experiment in a line: Cytotoxic effect on host cells during growth phase of virus in vero cell cultures using MTT method. Conditions: Chlorocebus sabaeus. It is filed as functional, cell-based. (In general: Tetrazolium assays rely on reduction of a dye to a coloured formazan, in cell work by metabolically active cells.)
Assay [2] has as its system Vero. As to the kind of experiment: In vitro anti-vesicular stomatitis virus activity in vero cell cultures. Conditions: Chlorocebus sabaeus, read-out: ED50 (the source's name). In kind it is functional.
The nature of assay [3]: Ratio of cytotoxicity, IC50(growing) to antiviral activity (ED50) was determined. It is filed as functional.
Assay [4] has as its system Vero. The experiment in a line: Cytotoxic effect on host cells during stationary phase of virus in vero cell cultures using MTT method. Conditions: Chlorocebus sabaeus. In kind it is functional, cell-based.

Structures are written as SMILES. Values after ≈ are worked out from the molar mass of the structure shown. Bounds are passed on as bounds.

The source of these data is ChEMBL document CHEMBL1127251, “New neplanocin analogues. III. 6R-configuration is essential for the antiviral activity of 6-C-methyl-3-deazaneplanocin a's” (Bioorg Med Chem Lett, 1994).

`C[C@@H](O)C1=C[C@@H](n2cnc3c(N)nccc32)[C@H](O)[C@@H]1O`: the figures for the IC50 in assay [1] and in assay [4] were 12 µg/mL (≈ 43.4 µM) and over 500 µg/mL, respectively. The EC50 in assay [2] turned out to be 1 µg/mL (≈ 3.62 µM). Besides, in assay [3], the Selectivity index worked out at 12.
`C[C@H](O)C1=C[C@@H](n2cnc3c(N)ncnc32)[C@H](O)[C@@H]1O`: the results for the IC50 in assay [1] and in assay [4] were over 100 µg/mL and over 500 µg/mL, respectively. Also, the EC50 in assay [2] was over 100 µg/mL.
For `Nc1nccc2c1ncn2[C@@H]1C=C(CO)[C@@H](O)[C@H]1O`, the IC50 (in general, the midpoint of a concentration-inhibition curve) was 0.55 µg/mL (≈ 2.1 µM) in assay [1] and over 500 µg/mL in assay [4]. The EC50 in assay [2] came to 0.24 µg/mL (≈ 0.915 µM). In assay [3], the Selectivity index turned out to be 2.3.
As for `Nc1ncnc2c1ncn2[C@@H]1C=C(CO)[C@@H](O)[C@H]1O` [NEOPLANOCIN A], the half-inhibitory concentration (IC50) in assay [1] came out at 0.26 µg/mL (≈ 0.988 µM); in assay [4], 152 µg/mL (≈ 577 µM). In addition, in assay [2], the EC50 is 0.24 µg/mL (≈ 0.912 µM). In assay [3], the Selectivity index worked out at 1.1.
For the molecule `C[C@H](O)C1=C[C@@H](n2cnc3c(N)nccc32)[C@H](O)[C@@H]1O`, the IC50 in assay [1] is over 100 µg/mL; in assay [4] it was over 500 µg/mL. Moreover, in assay [2], the EC50 was over 100 µg/mL.
`C[C@@H](O)C1=C[C@@H](n2cnc3c(N)ncnc32)[C@H](O)[C@@H]1O`: the results for the IC50 in assay [1] and in assay [4] were 2.2 µg/mL (≈ 7.93 µM) and over 500 µg/mL, respectively. Further, the EC50 in assay [2] was 0.24 µg/mL (≈ 0.866 µM). Besides, the Selectivity index in assay [3] turned out to be 9.2.
